Results on eleven compounds are retold here after patent US20250032623A1, “HETEROBIFUNCTIONAL COMPOUNDS AND THEIR USE IN TREATING DISEASE” (HALDA THERAPEUTICS OPCO, INC., priority 2021, published 2025).

One experiment deals with HEK293 cells. The experiment can be described thus: Cellular growth inhibition assay (CellTiter-Glo), HEK293 cells. The settings on record: Homo sapiens, 72 h, three days compound treatment, CellTiter-Glo 2.0, read-out: CTG HEK293 GI50. In kind it is cell-based. Summed up: (§1)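 GI50 derived by four-parameter regression of luminescence (CellTiter-Glo 2.0) at Day 0 and Day 3, normalized to DMSO wells. Cells (HeLa, HEK293; 500/well, DMEM plus 10% FBS) were dosed with compound dilutions 24 h post-seeding and exposed for three days at 37 °C.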
Background: Cellular ATP, detected with luciferase, serves as a proxy for viable cell number.

In the next experiment the test system is HeLa cells. In words: Cellular growth inhibition assay (CellTiter-Glo), HeLa cells. The settings on record: Homo sapiens, 72 h, three days compound treatment, CellTiter-Glo 2.0, read-out: CTG HELA GI50. In kind it is cell-based. The procedure, abridged: as §1
A further experiment concerns the target T1, KRAS G12C (Homo sapiens, UniProt P01116, G12C).
T1 construct: Kras (aa 2-169), GST; purchased Reaction Biology Corporation (RBC)
In words: KRAS G12C nucleotide exchange assay (SOS1 mediated, HTRF). Type of experiment: biochemical. The settings on record: 1 hr pre-incubation at RT, read-out: IC50 (inhibition of KRas G12C). Here is the method: Exemplary compounds were tested for ability to inhibit KRas G12C.
KRAS target engagement (IC50 determination) was performed using a KRAS G12C nucleotide exchange assay (Reaction Biology Corporation). Specifically, compounds were tested against KRAS G12C in 10-point concentration IC50 mode with 3-fold serial dilution at a starting concentration of 10 μM. ARS1620 was used as a control. Compounds were pre-incubated with protein for 1 hr at RT. Parameters for the assay were:
In the method, Kras was mixed with a-GST Tb antibody (1.5× solution) and […] was delivered to reaction wells. Compounds were delivered using acoustic dispenser (Echo, Labcyte). Kras/aGST-Tb Ab/compound mixture was incubated for 1 hour at room temperature. A 3× solution of SOS1 and GTP* was prepared in reaction buffer. A […] aliquot of SOS1/GTP* solution was added to reaction well to initiate the exchange reaction. No—SOS1 reaction or max compound concentration was used as blank. IC50 determination was performed using a Sigmoidal dose response (variable slope) equation.
(In general: TR-FRET usually uses a lanthanide donor and a delayed reading to cut background.)

pIC50: −log10 of the molar value. Bounds are passed on as bounds.

T1 sequence (P01116 2-169 isoform P01116-2 G12C): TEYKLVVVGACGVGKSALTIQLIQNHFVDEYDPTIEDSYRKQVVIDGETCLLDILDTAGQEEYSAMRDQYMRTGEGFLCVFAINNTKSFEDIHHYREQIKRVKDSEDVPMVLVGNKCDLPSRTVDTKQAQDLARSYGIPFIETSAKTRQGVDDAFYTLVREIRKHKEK

Regarding `CN(C/C=C/C(=O)N1CCN(c2nc(OC[C@@H]3CCCN3C)nc3c2CCN(c2cccc4cccc(Cl)c24)C3)C[C@@H]1CC#N)CCOCCOCCOCCOCCOCCOCCON(C)C(=O)N1N=C(c2cc(F)ccc2F)SC1(CCCN)c1ccccc1` (some centres unmarked) [Compound I-78], the GI50 (commonly the concentration at which growth is held to half of that of the control) was 500 to 1500 nM in the experiment with HEK293 cells and less than 500 nM in the experiment on HeLa cells. Moreover, at KRAS G12C, the pIC50 – broadly, −log10 of the IC50, conventionally taken in molar units – was greater than 7.00.
For `CN(C/C=C/C(=O)N1CCN(c2nc(OC[C@@H]3CCCN3C)nc3c2CCN(c2cccc4cccc(Cl)c24)C3)C[C@@H]1CC#N)CCOCCOCCOCCOCCOCCOCCOCCOCCON(C)C(=O)N1N=C(c2cc(F)ccc2F)SC1(CCCN)c1ccccc1` (some centres unmarked) [Compound I-80], in that order: 500 to 1500 nM, less than 500 nM and greater than 7.00.
For `CC[C@@H]1C(=O)N(C)c2cnc(Nc3ccc(C(=O)NCCOCCN4CCN(C/C=C/C(=O)N5CCN(c6nc(OC[C@@H]7CCCN7C)nc7c6CCN(c6cccc8cccc(Cl)c68)C7)C[C@@H]5CC#N)CC4)cc3OC)nc2N1C1CCCC1` [Compound I-82], in that order: less than 500 nM, less than 500 nM and greater than 7.00.
Taken in the same sequence, the figures for `C=C(F)C(=O)N1CCN(c2nc(OC[C@@H]3CCCN3CCCOCCOCCn3cc(CNc4cc(N5CCCC[C@H]5CCO)nc5c(CC)cnn45)ccc3=O)nc3c2CCN(c2cccc4cccc(Cl)c24)C3)C[C@@H]1CC#N` [Compound I-87, 2-[(2S)-4-[7-(8-chloro-1-naphthyl)-2-[[(2S)-1-[3-[2-[2-[5-[[[3-ethyl-5-[(2S)-2-(2-hydroxyethyl)-1-piperidyl]pyrazolo[1,5-a]pyrimidin-7-yl]amino]methyl]-2-oxo-1-pyridyl]ethoxy]ethoxy]propyl]pyrrolidin-2-yl]methoxy]-6,8-dihydro-5H-pyrido[3,4-d]pyrimidin-4-yl]-1-(2-fluoroprop-2-enoyl)piperazin-2-yl]acetonitrile] were 500 to 1500 nM, 500 to 1500 nM and greater than 7.00.
`C=C(F)C(=O)N1CCN(c2nc(OC[C@@H]3CCCN3CCCOCCOCCOc3ccc(CNc4cc(N5CCCC[C@H]5CCO)nc5c(CC)cnn45)cn3)nc3c2CCN(c2cccc4cccc(Cl)c24)C3)C[C@@H]1CC#N` [Compound I-88, 2-[(2S)-4-[7-(8-chloro-1-naphthyl)-2-[[(2S)-1-[3-[2-[2-S[[5-[[[3-ethyl-5-[(2S)-2-(2-hydroxyethyl)-1-piperidyl]pyrazolo[1,5-a]pyrimidin-7-yl]amino]methyl]-2-pyridyl]oxy]ethoxy]ethoxy]propyl]pyrrolidin-2-yl]methoxy]-6,8-dihydro-5H-pyrido[3,4-d]pyrimidin-4-yl]-1-(2-fluoroprop-2-enoyl)piperazin-2-yl]acetonitrile]: the GI50 with HEK293 cells and with HeLa cells was 500 to 1500 nM each time. The pIC50 at KRAS G12C was greater than 7.00.
Take `CCc1cnn2c(NCc3ccc(OCCOCCOCCN(C)C/C=C/C(=O)N4CCN(c5nc(OC[C@@H]6CCCN6C)nc6c5CCN(c5cccc7cccc(Cl)c57)C6)C[C@@H]4CC#N)nc3)cc(N3CCCC[C@H]3CCO)nc12` [Compound I-89]: the GI50 is 500 to 1500 nM in the experiment with HEK293 cells and less than 500 nM in the experiment on HeLa cells. Further, the pIC50 at KRAS G12C was greater than 7.00.
Taken in the same sequence, the figures for `CCc1cnn2c(NCc3ccc(OCCN(C)C/C=C/C(=O)N4CCN(c5nc(OC[C@@H]6CCCN6C)nc6c5CCN(c5cccc7cccc(Cl)c57)C6)C[C@@H]4CC#N)nc3)cc(N3CCCC[C@H]3CCO)nc12` [Compound I-91, 2-[(2S)-4-[7-(8-chloro-1-naphthyl)-2-[[(2S)-1-methylpyrrolidin-2-yl]methoxy]-6,8-dihydro-5H-pyrido[3,4-d]pyrimidin-4-yl]-1-[(E)-4-[2-[[5-[[[3-ethyl-5-[(2S)-2-(2-hydroxyethyl)-1-piperidyl]pyrazolo [1,5-a]pyrimidin-7-yl]amino]methyl]-2-pyridyl]oxy]ethyl-methyl-amino]but-2-enoyl]piperazin-2-yl]acetonitrile] were less than 500 nM, less than 500 nM and greater than 7.00.
For `C=C(F)C(=O)N1CCN(c2nc(OC[C@@H]3CCCN3CCCN(C)C(=O)N3N=C(c4cc(F)ccc4F)S[C@@]3(CCCN)c3ccccc3)nc3c2CCN(c2cccc4cccc(Cl)c24)C3)C[C@@H]1CC#N` [Compound I-97, (2S)-2-(3-aminopropyl)-N-[3-[(2S)-2-[[7-(8-chloro-1-naphthyl)-4-[(3S)-3-(cyanomethyl)-4-(2-fluoroprop-2-enoyl)piperazin-1-yl]-6,8-dihydro-SH-pyrido[3,4-d]pyrimidin-2-yl]oxymethyl]pyrrolidin-1-yl]propyl]-5-(2,5-difluorophenyl)-N-methyl-2-phenyl-1,3,4-thiadiazole-3-carboxamide], the GI50 in the experiment with HeLa cells fell in the range of 500 to 1500 nM. The pIC50 on KRAS G12C was greater than 7.00.
Take `C=C(F)C(=O)N1CCN(c2nc(OC[C@@H]3CCCN3CCCOCCOCCNC(=O)c3ccc(Nc4ncc5c(n4)N(C4CCCC4)[C@H](CC)C(=O)N5C)c(OC)c3)nc3c2CCN(c2cccc4cccc(Cl)c24)C3)C[C@@H]1CC#N` [Compound I-103, N-[2-[2-[3-[(2S)-2-1[[7-(8-chloro-1-naphthyl)-4-[(3S)-3-(cyanomethyl)-4-(2-fluoroprop-2-enoyl)piperazin-1-yl]-6,8-dihydro-5H-pyrido1[3,4-d]pyrimidin-2-yl]oxymethyl]pyrrolidin-1-yl]propoxy]ethoxy]ethyl]-4-[1[(7R)-8-cyclopentyl-7-ethyl-5-methyl-6-oxo-7H-pteridin-2-yl]amino]-3-methoxy-benzamide]: the GI50 in the experiment on HEK293 cells is 500 to 1500 nM. Further, at KRAS G12C, the pIC50 is greater than 7.00.
Taken in the same sequence, the figures for `C=C(F)C(=O)N1CCN(c2nc(OC[C@@H]3CCCN3CCCOCCOCCOCCNC(=O)c3ccc(Nc4ncc5c(n4)N(C4CCCC4)[C@H](CC)C(=O)N5C)c(OC)c3)nc3c2CCN(c2cccc4cccc(Cl)c24)C3)C[C@@H]1CC#N` [Compound I-104, N-[2-[2-[2-[3-[(2S)-2-[[7-(8-chloro-1-naphthyl)-4-[(3S)-3-(cyanomethyl)-4-(2-fluoroprop-2-enoyl)piperazin-1-yl]-6,8-dihydro-5H-pyrido[3,4-d]pyrimidin-2-yl]oxymethyl]pyrrolidin-1-yl]propoxy]ethoxy]ethoxy]ethyl]-4-[[(7R)-8-cyclopentyl-7-ethyl-5-methyl-6-oxo-7H-pteridin-2-yl]amino]-3-methoxy-benzamide] were 500 to 1500 nM and greater than 7.00.
Taken in the same sequence, the figures for `C=C(F)C(=O)N1CCN(c2nc(OC[C@@H]3CCCN3CCCOCCOCCOCCOCCNC(=O)c3ccc(Nc4ncc5c(n4)N(C4CCCC4)[C@H](CC)C(=O)N5C)c(OC)c3)nc3c2CCN(c2cccc4cccc(Cl)c24)C3)C[C@@H]1CC#N` [Compound I-105, N-[2-[2-[2-[2-[3-[(2S)-2-[[7-(8-chloro-1-naphthyl)-4-[(3S)-3-(cyanomethyl)-4-(2-fluoroprop-2-enoyl)piperazin-1-yl]-6,8-dihydro-5H-pyrido[3,4-d]pyrimidin-2-yl]oxymethyl]pyrrolidin-1-yl]propoxy]ethoxy]ethoxy]ethoxy]ethyl]-4-[[(7R)-8-cyclopentyl-7-ethyl-5-methyl-6-oxo-7H-pteridin-2-yl]amino]-3-methoxy-benzamide] were 500 to 1500 nM and greater than 7.00.
